Reference: patent publication US20080311212A1, “CRYSTALLINE ISOXAZOLE DERIVATIVE AND PHARMACEUTICAL PREPARATION THEREOF” (Dainippon Sumitomo Pharma Co., Ltd., priority 2001, published 2008)

What was measured:
Type in all cases: physicochemical
[1] = Dry pneumatic grinding of crystals 1 (A-O Jet Mill): amount adhering to inside of apparatus; conditions: 7 g crystals charged, pneumatic grinding at 0.49 MPa
Excerpt: Crystals were charged into an A-O Jet Mill (mfd. by Seishin Enterprise Co., Ltd.) and subjected to pneumatic grinding at a forcing pressure of 0.49 MPa and a grinding pressure of 0.49 MPa.

[2] = Dry pneumatic grinding of crystals 2 (Jet O Mill): particle size distribution of ground crystals; conditions: one run of dry pneumatic grinding, 0.44-0.49 MPa, laser diffraction (dry measurement)
Excerpt: Crystals were charged into a Jet 0 Mill Model JOMO101 (mfd. by Seishin Enterprise Co., Ltd.) and subjected to pneumatic grinding at a forcing pressure and a grinding pressure (which had been set at the same pressure) of 0.44 MPa to 0.49 MPa. […] A laser diffraction particle size distribution meter (dry measurement) was used for measuring the particle size distribution. It has already been confirmed that repeated grinding or the increase of the grinding pressure is necessary for further particle size reduction.

[3] = Wet high-pressure grinding of crystals (Microfluidizer): particle size distribution of ground crystals; conditions: wet high-pressure grinding in water, 100 MPa, laser diffraction (wet measurement)
Procedure: Crystals were charged into Microfluidizer Model M110Y (mfd. by Mizuho Industrial Co., Ltd.) together with water and subjected to high-pressure grinding. […] In this case, the α type crystals were solidified during the grinding. […] The particle size distribution was measured by dispersing the ground crystals in water in an agate mortar. A laser diffraction particle size distribution meter (wet measurement) was used for measuring the particle size distribution.

[4] = Crystal type stability on grinding / in aqueous suspension; conditions: for change of crystal type during grinding: α: wet grinding under high-pressure conditions, suspended in water, β: pneumatic and wet grinding
Excerpt: When the α type crystals were subjected to pneumatic grinding, they adhered remarkably to the inside of a grinding apparatus. Therefore, their pulverization to a desirable size by one run of grinding operation was difficult, so that it was necessary to grind them repeatedly several times. Since it often became necessary to remove the crystals adhering to the inside, the grinding efficiency and the yield were low.
When the β type crystals were subjected to pneumatic grinding, they hardly adhered to the inside of a grinding apparatus, were easy to handle in a process of their formulation into a pharmaceutical preparation, and could be continuously ground. The β type crystals could easily be ground also by a wet grinding method and made it possible to produce finer powder that could be formulated into a pharmaceutical preparation.
The β type crystals of the present invention may be obtained also by stirring phosphate or a type crystals of the isoxazole derivative of the formula 1 in a suspended state in water for a definite time. In the case of the phosphate, the β type crystals could be obtained, for example, by stirring the phosphate at 50° C. for about 5 hours. […] So long as seed crystals for the β type crystals are used, it is also possible to produce the β type crystals by using any of hydrophobic organic solvents such as aromatic hydrocarbons (e.g. toluene and benzene), ethers (e.g. t-butyl methyl ether, diisopropyl ether and diethyl ether), aliphatic hydrocarbons (e.g. cyclohexane, hexane and heptane), halogen-containing solvents (e.g. chloroform, methylene chloride and 1,2-dichloroethane) and esters (e.g. ethyl acetate). For example, the isoxazole derivative of the formula 1 may be crystallized by dissolving the derivative in a mixed solvent of toluene and 2-propanol and adding hexane thereto.

Question: What does the source list for C[C@@H](c1ccc(-c2ccccc2)c(F)c1)c1cc(/N=C(/N)N2CCOCC2)on1 [β type crystals, 3-[(1S)-1-(2-fluorobiphenyl-4-yl)ethyl]-5-{[amino(morpholin-4-yl)methylene]amino}isoxazole]?
Answer: Adhering amount [1]: 0.00 g; Undersize particle D50% particle size ([2]; D50%): 10.2 μm; Undersize particle D50% particle size ([2]; first D50% line): 4.7 μm; Undersize particle D50% particle size ([3]; D50%): 3.2 μm; Undersize particle D50% particle size ([3]; first D50% line): 1.7 μm; thermodynamic stability of crystal type ([4]; stirring phosphate or α type crystals suspended in water gives β type crystals): thermodynamically more stable than the α type crystals; change of crystal type during grinding [4]: did not change the crystal type

Question: Which results are given for C[C@@H](c1ccc(-c2ccccc2)c(F)c1)c1cc(/N=C(/N)N2CCOCC2)on1 [α type crystals, 3-[(1S)-1-(2-fluorobiphenyl-4-yl)ethyl]-5-{[amino(morpholin-4-yl)methylene]amino}isoxazole]?
Answer: Adhering amount [1]: 2.06 g; Undersize particle D50% particle size ([2]; D50%): 79.3 μm; Undersize particle D50% particle size ([2]; first D50% line): 27.6 μm; Undersize particle D50% particle size ([3]; D50%): 58.1 μm; Undersize particle D50% particle size ([3]; first D50% line): 26.1 μm; change of crystal type during grinding [4]: changed to the β type crystals
